Data on seven sequences can be found in paper PMC5742231 (Frontiers in Chemistry, 2017).

Experiment [1] concerns Bacteriophage ΔTOX:GFP (ϕΔTOX:GFP). It counts as cell-based.
A further experiment has as its system S. aureus. As to conditions: cited from earlier work.
The test system of experiment [2] is different bacterial strains. Conditions: cited from earlier work.

GLLKKWLKKWKEFKRIVGY [Peptide 2]: in experiment [1], the “bacteriophage inactivation activity (in words)” value is on record as “lowest inactivation activity” and the “shape of phage neutralizing activity vs. concentration curve” value is reported as “bell curve shaped behavior”.

Regarding GLLRKWGKKWKEFLRRVWK [Peptide 6.2], in experiment [1], the phages inactivated is about 100% and the “shape of phage neutralizing activity vs. concentration curve” value was “bell curve shaped behavior”.

Consider “ILRWPWWPWRRK [Omiganan, reference compound]”, for which the “bacteriophage inactivation activity (in words)” value in experiment [1] is “no inactivation activity”. Further, the “antimicrobial activity against S. aureus” value in the experiment on S. aureus was “activity against S. aureus”.

Regarding “MVVFSVPKFKSTVAKLLSSA [Random peptide, reference compound]”, the antimicrobial activity result in experiment [2] is on record as “no antimicrobial activity”. In experiment [1], the “bacteriophage inactivation activity (in words)” value is on record as “no inactivation activity”.

For RIVQRIAKWAKKWYKAGK [Peptide 8.1], in experiment [1], the “bacteriophage inactivation activity (in words)” value is “lowest inactivation activity”.

RIVQRIKKWLLKWKKLGY [Peptide 5] had a phages inactivated in experiment [1] of about 100%.

As to RIVQRILKWLKKWYKLGK [Peptide 8], the phages inactivated in experiment [1] is reported as about 100%.
